Results as given in US20260224566A1, “Obicetrapib and Ezetimibe Combination Treatment and Fixed Dose Pharmaceutical Compositions” (NewAmsterdam Pharma B.V., priority 2023, published 2026).

Key:
[1] = tested on: patients with mild dyslipidemia; conditions: cited from earlier work
[2] = tested on: ApoE*3-Leiden.CETP transgenic mice; test: Example 13: plasma cholesterol and atherosclerosis development in aortic root of ApoE*3-Leiden.CETP mice; assay type: in vivo, mouse
Description: The current study was carried out to evaluate the effect of obicetrapib monotherapy and a combination of obicetrapib+ezetimibe on atherosclerosis development in a translational mouse model for hyperlipidemia and atherosclerosis.
(§1) The experimental protocol is illustrated in FIG. 82, with time (t) measured in weeks. Female ApoE*3-Leiden.CETP transgenic mice were fed a Western diet with 0.05% w/w cholesterol (equivalent to daily human intake) with (i) no drug (control), or the same diet containing (ii) obicetrapib alone (2 mg/kg/day), (iii) ezetimibe alone (on average 0.6 mg/kg/day) or (iv) the combination of obicetrapib and ezetimibe.

CETP = target: T1, CETP (Homo sapiens, UniProt P11597); test: Example 13: CETP activity and mass in ApoE*3-Leiden.CETP mice; assay type: in vivo, mouse
T1 construct: from tissue; host or cells: female ApoE*3-Leiden.CETP transgenic mice dosed in vivo
T1 sequence (P11597 18-493): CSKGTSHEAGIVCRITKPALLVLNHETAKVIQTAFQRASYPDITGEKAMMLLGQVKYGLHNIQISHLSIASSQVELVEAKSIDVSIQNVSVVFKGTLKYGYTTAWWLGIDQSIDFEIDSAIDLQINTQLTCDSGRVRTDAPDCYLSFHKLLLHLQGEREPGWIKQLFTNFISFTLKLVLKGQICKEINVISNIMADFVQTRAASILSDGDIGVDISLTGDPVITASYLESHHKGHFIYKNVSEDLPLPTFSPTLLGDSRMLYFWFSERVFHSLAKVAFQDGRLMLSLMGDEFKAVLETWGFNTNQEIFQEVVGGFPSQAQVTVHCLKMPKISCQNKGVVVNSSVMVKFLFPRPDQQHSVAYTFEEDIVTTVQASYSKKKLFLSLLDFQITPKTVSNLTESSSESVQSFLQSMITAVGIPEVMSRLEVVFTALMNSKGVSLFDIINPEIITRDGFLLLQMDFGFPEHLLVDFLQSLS
Description: as §1

[3] = tested on: critical physiological systems; conditions: rats, doses up to 300 mg/kg; cited from earlier work
[4] = aortic root, 28 weeks of treatment
[5] = obicetrapib 2 mg/kg/day, ezetimibe on average 0.6 mg/kg/day in Western diet

CCOC(=O)N1c2ccc(C(F)(F)F)cc2[C@@H](N(Cc2cc(C(F)(F)F)cc(C(F)(F)F)c2)c2ncc(OCCCC(=O)O)cn2)C[C@H]1CC [obicetrapib, {4-[(2-{[3,5-bis(trifluoromethyl)benzyl] [(2R,4S)-1-(ethoxycarbonyl)-2-ethyl-6-(trifluoromethyl)-1,2,3,4-tetrahydroquinolin-4-yl]amino}pyrimidin-5-yl)oxy]butanoic acid}]
HDL-C efflux capacity ([1]; TA-8995-03, 10 mg daily dose): significant increase | additional reduction in LDL-C on top of atorvastatin 20 mg ([1]; TA-8995-03, obicetrapib 10 mg): 50.3% | HDL-cholesterol ([2]; FIG. 84B): increases | percentage of unaffected segments, increase [2, 4]: +347% | severe lesions (types IV-V), change [2, 4]: −82% | total atherosclerotic lesion size, change ([2]; aortic root, 28 weeks of treatment, versus control): −90% | non-HDL-C levels, change [2, 5]: −53% | total plasma cholesterol levels, change [2, 5]: −31% | lesion number ([2]; versus control animals, FIG. 90B): statistically significant reductions | cetp mass (CETP; FIG. 87B): without statistically significant changes | CETP activity, change (CETP; [5]): −98% | adverse effect on critical physiological systems [3]: no adverse effect
